Measurements: ChEMBL document CHEMBL6178013, “Ferroptosis of Cancer Cells via Tubulin Degradation and Mitochondrial Dysfunction: A Novel Mechanism of Anticancer Effect for Small-Molecule Anion Transporters” (J Med Chem, 2025)
Activity calls are given as the source filed them. The rule behind the calls is not given here.

Experiments:
HeLa [1] = test: Antitumor activity against human HeLa cells xenografted in male Balb/C nude mouse assessed as average tumor size at 2 mg/kg, ip administered on every 2 days measured after 18 days (reference value: 1995.1 mm3); type: functional; details: time 18 day
MCF7 = test: Cytotoxicity against human MCF7 cells incubated for 48 hrs by MTT assay; type: functional, cell-based; details: MCF7, 48 h
HepG2 = test: Cytotoxicity against human HepG2 cells incubated for 48 hrs by MTT assay; type: functional, cell-based; details: HepG2, 48 h
[2] = Toxicity in male Balb/C nude mouse xenografted with human HeLa cells assessed as body weight change at […], ip administered on every 2 days measured after 18 days; type: organism-based; details: in vivo, 432 h, time 18 day
HeLa [3] = test: Cytotoxicity against human HeLa cells incubated for 48 hrs by MTT assay; type: functional, cell-based
Chloride [4] = test: Binding affinity to chloride anions assessed as transport of chloride anions across bulky nitrobenzene membrane in U-shaped tube harboring NaCl in donor phase and NaNO3 in receiving phase at 1 mM measured for 12 hrs by chloride ion selective electrode technique
Liposome = test: Disruption of egg-yolk L-alpha-phosphatidylcholine liposome model membrane assessed as calcein leakage by fluorescence based assay; type: subcellular
A549 = test: Cytotoxicity against human A549 cells incubated for 48 hrs by MTT assay; type: functional, cell-based; details: A549, 48 h
Chloride [5] = test: Binding affinity to chloride anions assessed as chloride efflux in egg-yolk L-alpha-phosphatidylcholine liposome model measured per lipid in presence of intravesicular NaCl/extravesicular NaNO3 by chloride ion selective electrode technique
Chloride [6] = test: Binding affinity to chloride anions in human HeLa cells assessed as increase in green fluorescence in cytoplasm at 5 uM incubated for 6 hrs by AO staining based analysis; type: cell-based
Chloride [7] = test: Binding affinity to chloride anions assessed as anionophoric activity in egg-yolk L-alpha-phosphatidylcholine liposome model measured per lipid by pyranine-based fluorescent assay
Chloride [8] = test: Binding affinity to chloride anions using tetrabutylammonium chloride salt assessed as association constant by 1H NMR spectroscopy
Chloride [9] = test: Binding affinity to chloride anions in human HeLa cells assessed as decrease in orange fluorescence in cytoplasm at 5 uM incubated for 6 hrs by AO staining based analysis relative to control; type: cell-based; design: scale not given: the % may be the effect or the level left
Chloride [10] = test: Binding affinity to chloride anions assessed as fold increase in anionophoric activity in egg-yolk L-alpha-phosphatidylcholine liposome model measured per lipid by pyranine-based fluorescent assay relative to m-Bimbe
Chloride [11] = test: Binding affinity to chloride anions in human HeLa cells assessed as decrease in red fluorescence in cytoplasm at 5 uM incubated for 1.5 hrs by MR-(RR)2 staining based analysis; type: cell-based
Chloride [12] = test: Binding affinity to chloride anions in human HeLa cells assessed as chloride influx up to 5 uM incubated for 2 hrs by MQAE staining based analysis; type: cell-based

COc1cccc2c1C(=O)c1c(O)c3c(c(O)c1C2=O)C[C@@](O)(C(=O)CO)C[C@@H]3O[C@H]1C[C@H](N)[C@H](O)[C@H](C)O1 [DOXORUBICIN]
Activity (HeLa [1]): 1093.2 mm3 | IC50 (MCF7): 0.26 µM | IC50 (HepG2): 2.3 µM | Activity [2]: Toxic | IC50 (HeLa [3]): 0.11 µM

FC(F)(F)c1ccc2nc(-c3cccc(-c4nc5ccc(C(F)(F)F)cc5[nH]4)c3)[nH]c2c1
Activity (Chloride [4]): Active | Activity (Liposome): inactive | IC50 (A549): 12.8 µM | EC50 (Chloride [5]): > 10 mol% | IC50 (MCF7): 10.5 µM | IC50 (HepG2): 10.6 µM | Activity (Chloride [6]): Not active; Only Slight Activity Was Observed | EC50 (Chloride [7]): 9.67 mol% | Ka (Chloride [8]): 3.51 10^3/M | IC50 (HeLa [3]): 12.3 µM | Activity (Chloride [9]): Not active; Only Slight Activity Was Observed

c1cc(-c2nc3ccccc3[nH]2)cc(-c2nc3ccccc3[nH]2)c1
fold change (FC) (Chloride [10]): 3.5 10^3No_unit | EC50 (Chloride [5]): 0.06 mol% | EC50 (Chloride [7]): 2.76 10^-3mol% | Ka (Chloride [8]): 1.45 10^4/M

FC(F)(F)c1cc(C(F)(F)F)c2nc(-c3cccc(-c4nc5c(C(F)(F)F)cc(C(F)(F)F)cc5[nH]4)c3)[nH]c2c1
Activity (Chloride [4]): Active | Activity (Liposome): inactive | IC50 (A549): 1.49 µM | fold change (FC) (Chloride [10]): 35.8 | EC50 (Chloride [5]): 1.92 mol% | IC50 (MCF7): 2.4 µM | Activity (Chloride [11]): Active; The Result Reveals That Compound Can Alkalize Lysosomes | IC50 (HepG2): 8.3 µM | Activity (Chloride [6]): Active; The Result Indicates That Compound Basify Acidic Organelles | EC50 (Chloride [7]): 0.27 mol% | Ka (Chloride [8]): 2.93 10^4/M | IC50 (HeLa [3]): 2.84 µM | Activity (Chloride [9]): Active; The Result Indicates That Compound Basify Acidic Organelles | Activity (Chloride [12]): Active

Fc1cc(-c2nc3ccc(C(F)(F)F)cc3[nH]2)cc(-c2nc3ccc(C(F)(F)F)cc3[nH]2)c1
Activity (Chloride [4]): Active | Activity (Liposome): inactive | IC50 (A549): 4.53 µM | fold change (FC) (Chloride [10]): 6.28 10^2No_unit | EC50 (Chloride [5]): 0.94 mol% | IC50 (MCF7): 3.17 µM | IC50 (HepG2): 1.67 µM | Activity (Chloride [6]): Active; The Result Indicates That Compound Basify Acidic Organelles | EC50 (Chloride [7]): 1.54 10^-2mol% | Ka (Chloride [8]): 1.17 10^4/M | IC50 (HeLa [3]): 3.53 µM | Activity (Chloride [9]): Active; The Result Indicates That Compound Basify Acidic Organelles

Fc1cc2nc(-c3cccc(-c4nc5cc(F)c(C(F)(F)F)cc5[nH]4)c3)[nH]c2cc1C(F)(F)F
Activity (Chloride [4]): Active | Activity (Liposome): inactive | IC50 (A549): 28.8 µM | fold change (FC) (Chloride [10]): 15.1 | EC50 (Chloride [5]): 4.11 mol% | IC50 (MCF7): 11.2 µM | IC50 (HepG2): 11.2 µM | Activity (Chloride [6]): Active; The Result Indicates That Compound Basify Acidic Organelles | EC50 (Chloride [7]): 0.64 mol% | Ka (Chloride [8]): 6.96 10^3/M | IC50 (HeLa [3]): 18.3 µM | Activity (Chloride [9]): Active; The Result Indicates That Compound Basify Acidic Organelles

O=[N+]([O-])c1cc(-c2nc3ccc(C(F)(F)F)cc3[nH]2)cc(-c2nc3ccc(C(F)(F)F)cc3[nH]2)c1
Activity (Chloride [4]): Active | Activity (Liposome): inactive | IC50 (A549): 7.78 µM | fold change (FC) (Chloride [10]): 4.84 10^3No_unit | EC50 (Chloride [5]): 0.3 mol% | IC50 (MCF7): 8.6 µM | Activity (Chloride [11]): Active; The Result Reveals That Compound Can Alkalize Lysosomes | IC50 (HepG2): 6.8 µM | Activity (Chloride [6]): Active; The Result Indicates That Compound Basify Acidic Organelles | EC50 (Chloride [7]): 2 10^-3mol% | Ka (Chloride [8]): 5.25 10^3/M | IC50 (HeLa [3]): 8.33 µM | Activity (Chloride [9]): Active; The Result Indicates That Compound Basify Acidic Organelles | Activity (Chloride [12]): Active

Fc1cc(-c2nc3cc(F)c(C(F)(F)F)cc3[nH]2)cc(-c2nc3cc(F)c(C(F)(F)F)cc3[nH]2)c1
Activity (Chloride [4]): Active | Activity (Liposome): inactive | IC50 (A549): 3.97 µM | fold change (FC) (Chloride [10]): 2.55 10^2No_unit | EC50 (Chloride [5]): 0.2 mol% | IC50 (MCF7): 3.33 µM | IC50 (HepG2): 3.13 µM | Activity (Chloride [6]): Active; The Result Indicates That Compound Basify Acidic Organelles | EC50 (Chloride [7]): 3.79 10^-2mol% | Ka (Chloride [8]): 1.01 10^3/M | IC50 (HeLa [3]): 3.9 µM | Activity (Chloride [9]): Active; The Result Indicates That Compound Basify Acidic Organelles

O=[N+]([O-])c1cc(-c2nc3cc(F)c(C(F)(F)F)cc3[nH]2)cc(-c2nc3cc(F)c(C(F)(F)F)cc3[nH]2)c1
Activity (Chloride [4]): Active | Activity (Liposome): inactive | IC50 (A549): 10.2 µM | fold change (FC) (Chloride [10]): 4.08 10^2No_unit | EC50 (Chloride [5]): 0.11 mol% | IC50 (MCF7): 3.4 µM | Activity (Chloride [11]): Active; The Result Reveals That Compound Can Alkalize Lysosomes | IC50 (HepG2): 2.2 µM | Activity (Chloride [6]): Active; The Result Indicates That Compound Basify Acidic Organelles | EC50 (Chloride [7]): 2.37 10^-2mol% | Ka (Chloride [8]): 4.95 10^3/M | IC50 (HeLa [3]): 4.23 µM | Activity (Chloride [9]): 100% | Activity (Chloride [12]): Active

O=[N+]([O-])c1cc(-c2nc3c(C(F)(F)F)cc(C(F)(F)F)cc3[nH]2)cc(-c2nc3c(C(F)(F)F)cc(C(F)(F)F)cc3[nH]2)c1
Activity (Chloride [4]): Active | Activity (Liposome): inactive | IC50 (A549): 10.5 µM | fold change (FC) (Chloride [10]): 1.81 10^3No_unit | EC50 (Chloride [5]): 0.02 mol% | IC50 (MCF7): 10.8 µM | Activity (Chloride [11]): Active; The Result Reveals That Compound Can Alkalize Lysosomes | IC50 (HepG2): 16.5 µM | Activity (Chloride [6]): Active; The Result Indicates That Compound Basify Acidic Organelles | EC50 (Chloride [7]): 5.34 10^-3mol% | Ka (Chloride [8]): 6.58 10^3/M | IC50 (HeLa [3]): 9.67 µM | Activity (Chloride [9]): 100% | Activity (Chloride [12]): Active
